Assay results reported in patent US9340537B2, “Benzamide derivatives for inhibiting the activity of ABL1, ABL2 and BCR-ABL1” (NOVATIS AG, priority 2012, dated 2016).

Legend:
[1] = biological target: T1, ABL1 (64-515) (Homo sapiens (Human), UniProt P00519); assay: Caliper ABL1 (64-515) microfluidic mobility shift kinase assay; details: read-out: Caliper ABL1 (64-515) IC50
[2] = biological target: T1, ABL1 (64-515); assay: Radio ABL1 (64-515) radiometric filter-binding kinase assay; type: biochemical; details: 20 μM ATP

T1 sequence (P00519 64-515): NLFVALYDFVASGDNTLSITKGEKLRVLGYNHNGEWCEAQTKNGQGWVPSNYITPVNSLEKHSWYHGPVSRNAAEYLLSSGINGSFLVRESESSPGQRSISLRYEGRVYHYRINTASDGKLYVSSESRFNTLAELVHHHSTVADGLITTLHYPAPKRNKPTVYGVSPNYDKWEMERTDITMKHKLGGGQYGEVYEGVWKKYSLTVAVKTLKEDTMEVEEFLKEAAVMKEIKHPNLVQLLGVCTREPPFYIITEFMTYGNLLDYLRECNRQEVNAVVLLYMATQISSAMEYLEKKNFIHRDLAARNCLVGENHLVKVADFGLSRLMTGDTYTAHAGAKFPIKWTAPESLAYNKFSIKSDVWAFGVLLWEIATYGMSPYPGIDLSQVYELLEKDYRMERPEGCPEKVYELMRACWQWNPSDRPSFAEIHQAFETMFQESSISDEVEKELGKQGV

| SMILES | IC50 [1] [nM] | IC50 [2] [nM] |
| --- | --- | --- |
| CN(C)[C@H]1CN(c2ncc(C(=O)Nc3ccc(OC(F)(F)Cl)cc3)cc2-c2ccn[nH]2)C[C@@H]1O [Example 53, N-(4-(Chlorodifluoromethoxy)phenyl)-6-((3S,4S)-3-(dimethylamino)-4-hydroxypyrrolidin-1-yl)-5-(1H-pyrazol-5-yl)nicotinamide] | 1.4 | < 0.1 |
| N#Cc1ccc(-c2cc(C(=O)Nc3ccc(OC(F)(F)F)cc3)cnc2N2C[C@H](O)[C@@H](O)C2)[nH]1 [Example 31, 5-(5-Cyano-1H-pyrrol-2-yl)-6-((3S,4S)-3,4-dihydroxypyrrolidin-1-yl)-N-(4-(trifluoromethoxy)phenyl)nicotinamide] | < 0.13 | < 0.1 |
| O=C(Nc1ccc(OC(F)(F)F)cc1)c1cnc(N2CCCC2)c(-c2cc(CO)n[nH]2)c1 [Example 43, 5-(3-(Hydroxymethyl)-1H-pyrazol-5-yl)-6-(pyrrolidin-1-yl)-N-(4-(trifluoromethoxy)phenyl)nicotinamide] | 3.3 | – |
| Cc1ncc(-c2cc(C(=O)Nc3ccc(OC(F)(F)F)cc3)cnc2N2CC[C@H](CO)C2)s1 [Example 16, (S)-6-(3-(Hydroxymethyl)pyrrolidin-1-yl)-5-(2-methylthiazol-5-yl)-N-(4-(trifluoromethoxy)phenyl)nicotinamide] | 1.1 | < 3 |
| Cc1cc(-c2cc(C(=O)Nc3ccc(OC(F)(F)F)cc3)cnc2N2CC(CO)C2)[nH]n1 [Example 42, 6-(3-(Hydroxymethyl)azetidin-1-yl)-5-(3-methyl-1H-pyrazol-5-yl)-N-(4-(trifluoromethoxy)phenyl)nicotinamide] | 18 | 2 |
| O=C(Nc1ccc(OC(F)(F)F)cc1)c1ccc(N2C[C@H](O)[C@@H](O)C2)c(-c2ccc[nH]2)c1 [Example 28, 4-((3S,4S)-3,4-Dihydroxypyrrolidin-1-yl)-3-(1H-pyrrol-2-yl)-N-(4-(trifluoromethoxy)phenyl)benzamide] | 4.2 | 3 |
| O=C(Nc1ccc(OC(F)(F)F)cc1)c1cnc(N2C[C@H](CO)[C@@H](O)C2)c(-c2cncs2)c1 (relative stereo) [Example 17, 6-(trans-3-Hydroxy-4-(hydroxymethyl)pyrrolidin-1-yl)-5-(thiazol-5-yl)-N-(4-(trifluoromethoxy)phenyl)nicotinamide] | 1.4 | 10 |
| O=C(Nc1ccc(OC(F)(F)F)cc1)c1cnc(N2CCOC(CO)C2)c(-c2ccn[nH]2)c1 (stereo not shown) [Example 36, 6-(2-(Hydroxymethyl)morpholino)-5-(1H-pyrazol-5-yl)-N-(4-(trifluoromethoxy)phenyl)nicotinamide] | 8.1 | 5 |
| O=C(Nc1ccc(SC(F)(F)F)cc1)c1cnc(N2CC[C@@H](O)C2)c(-c2ccc[nH]2)c1 [Example 25, (R)-6-(3-Hydroxypyrrolidin-1-yl)-5-(1H-pyrrol-2-yl)-N-(4-((trifluoromethyl)thio)phenyl)nicotinamide] | 2.6 | 3.7 |
| NC12CC1CN(c1ncc(C(=O)Nc3ccc(OC(F)(F)Cl)cc3)cc1-c1ccn[nH]1)C2 (stereo not shown) [Example 54, 6-(1-Amino-3-azabicyclo[3.1.0]hexan-3-yl)-N-(4-(chlorodifluoromethoxy)phenyl)-5-(1H-pyrazol-5-yl)nicotinamide] | 0.4 | 1 |
| Cc1ncc(-c2cc(C(=O)Nc3ccc(OC(F)(F)F)cc3)cnc2N2CC[C@@H](O)C2)s1 [Example 11, (R)-6-(3-Hydroxypyrrolidin-1-yl)-5-(2-methylthiazol-5-yl)-N-(4-(trifluoromethoxy)phenyl)nicotinamide] | – | < 3 |
| N#Cc1cc(-c2cc(C(=O)Nc3ccc(OC(F)(F)F)cc3)cnc2N2CCCC2)[nH]n1 [Example 44, 5-(3-Cyano-1H-pyrazol-5-yl)-6-(pyrrolidin-1-yl)-N-(4-(trifluoromethoxy)phenyl)nicotinamide] | 7.1 | 19 |
| N[C@@H]1[C@H]2CN(c3ncc(C(=O)Nc4ccc(OC(F)(F)Cl)cc4)cc3-c3ccn[nH]3)C[C@@H]12 [Example 55, 6-((1R,5S,6s)-6-Amino-3-azabicyclo[3.1.0]hexan-3-yl)-N-(4-(chlorodifluoromethoxy)phenyl)-5-(1H-pyrazol-5-yl)nicotinamide] | 0.2 | 1 |
| O=C(Nc1ccc(OC(F)(F)Cl)cc1)c1cnc(N2CCC(F)(F)C2)c(-c2ccn[nH]2)c1 [Example 48, N-(4-(Chlorodifluoromethoxy)phenyl)-6-(3,3-difluoropyrrolidin-1-yl)-5-(1H-pyrazol-5-yl)nicotinamide] | – | 5.5 |
| O=C(Nc1ccc(OC(F)(F)Cl)cc1)c1cnc(N2CCN(CC(F)(F)F)CC2)c(-c2ccn[nH]2)c1 [Example 60, N-(4-(Chlorodifluoromethoxy)phenyl)-5-(1H-pyrazol-5-yl)-6-(4-(2,2,2-trifluoroethyl)piperazin-1-yl)nicotinamide] | < 0.64 | 1 |
| O=C(Nc1ccc(OC(F)(F)F)cc1)c1cnc(N2CC[C@@H](O)C2)c(-c2cnoc2)c1 [Example 8, (R)-6-(3-Hydroxypyrrolidin-1-yl)-5-(isoxazol-4-yl)-N-(4-(trifluoromethoxy)phenyl)nicotinamide] | – | 9 |
| O=C(Nc1ccc(OC(F)(F)F)cc1)c1cnc(N2CC[C@@H](O)C2)c(-c2nccs2)c1 [Example 9, (R)-6-(3-Hydroxypyrrolidin-1-yl)-5-(thiazol-2-yl)-N-(4-(trifluoromethoxy)phenyl)nicotinamide] | – | 10 |
| O=C(Nc1ccc(OC(F)(F)F)cc1)c1cnc(N2CC[C@@H](O)C2)c(-c2csc(CO)c2)c1 [Example 12, (R)-5-(5-(Hydroxymethyl)thiophen-3-yl)-6-(3-hydroxypyrrolidin-1-yl)-N-(4-(trifluoromethoxy)phenyl)nicotinamide] | – | < 3 |
| O=C(Nc1ccc(OC(F)(F)Cl)cc1)c1cnc(N2CCC3(CNC3)C2)c(-c2ccn[nH]2)c1 [Example 50, N-(4-(Chlorodifluoromethoxy)phenyl)-5-(1H-pyrazol-5-yl)-6-(2,6-diazaspiro[3.4]octan-6-yl)nicotinamide] | – | 1.3 |

Continued, values first:

| IC50 [1] [nM] | IC50 [2] [nM] | SMILES |
| --- | --- | --- |
| 47 | – | O=C(O)CCNc1ncc(C(=O)Nc2ccc(OC(F)(F)F)cc2)cc1-c1ccn[nH]1 [Example 95, 3-((3-(1H-Pyrazol-5-yl)-5-((4-(trifluoromethoxy)phenyl)carbamoyl)pyridin-2-yl)amino)propanoic acid] |
| 7.8 | – | O=C(Nc1ccc(OC(F)(F)Cl)cc1)c1cnc(NCC[C@H](O)CO)c(-c2ccn[nH]2)c1 [Example 101, (S)—N-(4-(Chlorodifluoromethoxy)phenyl)-6-((3,4-dihydroxybutyl)amino)-5-(1H-pyrazol-5-yl)nicotinamide] |
| 6.6 | – | O=C(Nc1ccc(OC(F)(F)Cl)cc1)c1cnc(NCCC(O)CO)c(-c2ccn[nH]2)c1 (stereo not shown) [Example 100, N-(4-(Chlorodifluoromethoxy)phenyl)-6-((3,4-dihydroxybutyl)amino)-5-(1H-pyrazol-5-yl)nicotinamide] |
| 0.8 | 2 | Cc1cc(-c2cc(C(=O)Nc3ccc(OC(F)(F)Cl)cc3)ccc2N2C[C@H](N)[C@@H](O)C2)[nH]n1 [Example 84, 4-((3S,4S)-3-Amino-4-hydroxypyrrolidin-1-yl)-N-(4-(chlorodifluoromethoxy)phenyl)-3-(3-methyl-1H-pyrazol-5-yl)benzamide] |
| 0.4 | – | NCC1(O)CCN(c2ncc(C(=O)Nc3ccc(OC(F)(F)Cl)cc3)cc2-c2ccn[nH]2)C1 (stereo not shown) [Example 83, 6-(3-(Aminomethyl)-3-hydroxypyrrolidin-1-yl)-N-(4-(chlorodifluoromethoxy)phenyl)-5-(1H-pyrazol-5-yl)nicotinamide] |
| 0.7 | 1 | CO[C@H]1CN(c2ncc(C(=O)Nc3ccc(OC(F)(F)Cl)cc3)cc2-c2ccn[nH]2)C[C@@H]1N (relative stereo) [Example 79, 6-(trans-3-Amino-4-methoxypyrrolidin-1-yl)-N-(4-(chlorodifluoromethoxy)phenyl)-5-(1H-pyrazol-5-yl)nicotinamide] |
| 5.7 | – | O=C(Nc1ccc(OC(F)(F)Cl)cc1)c1cnc(NC[C@@H](O)CCO)c(-c2ccn[nH]2)c1 [Example 98, (S)—N-(4-(Chlorodifluoromethoxy)phenyl)-6-((2,4-dihydroxybutyl)amino)-5-(1H-pyrazol-5-yl)nicotinamide] |
| 3.7 | – | O=C(Nc1ccc(OC(F)(F)F)cc1)c1cnc(N2C[C@H](O)[C@@H](F)C2)c(-c2ccn[nH]2)c1 (relative stereo) [Example 74, 6-(trans-3-Fluoro-4-hydroxypyrrolidin-1-yl)-5-(1H-pyrazol-5-yl)-N-(4-(trifluoromethoxy)phenyl)nicotinamide] |
| 13 | – | O=C(Nc1ccc(OC(F)(F)Cl)cc1)c1cnc(NCC[C@@H](O)CO)c(-c2ccn[nH]2)c1 [Example 102, (R)—N-(4-(Chlorodifluoromethoxy)phenyl)-6-((3,4-dihydroxybutyl)amino)-5-(1H-pyrazol-5-yl)nicotinamide] |
| 5.3 | – | O=C(Nc1ccc(OC(F)(F)Cl)cc1)c1cnc(NCCC(O)C(=O)O)c(-c2ccn[nH]2)c1 (stereo not shown) [Example 96, 4-((5-((4-(Chlorodifluoromethoxy)phenyl)carbamoyl)-3-(1H-pyrazol-5-yl)pyridin-2-yl)amino)-2-hydroxybutanoic acid] |
| 5.7 | – | O=C(Nc1ccc(OC(F)(F)Cl)cc1)c1cnc(NCC(O)CCO)c(-c2ccn[nH]2)c1 (stereo not shown) [Example 97, N-(4-(Chlorodifluoromethoxy)phenyl)-6-((2,4-dihydroxybutyl)amino)-5-(1H-pyrazol-5-yl)nicotinamide] |
| 5.1 | – | O=C(Nc1ccc(OC(F)(F)Cl)cc1)c1cnc(NC[C@H](O)CCO)c(-c2ccn[nH]2)c1 [Example 99, (R)—N-(4-(Chlorodifluoromethoxy)phenyl)-6-((2,4-dihydroxybutyl)amino)-5-(1H-pyrazol-5-yl)nicotinamide] |
| 23 | – | O=C(O)CCNc1ncc(C(=O)Nc2ccc(OC(F)(F)Cl)cc2)cc1-c1ccn[nH]1 [Example 94, 3-((5-((4-(Chlorodifluoromethoxy)phenyl)carbamoyl)-3-(1H-pyrazol-5-yl)pyridin-2-yl)amino)propanoic acid] |
